Data taken from patent publication US20090233910A1, “Npy antagonists, preparation and uses” (CEREP, priority 2005, published 2009).

Legend:
NPY Y1 receptor [1] = molecular target: T1, NPY Y1 receptor (Homo sapiens, UniProt P25929); experiment: cAMP measurement test in SK-N-MC cells (shift of NPY dose-effect curves, forskoline-stimulated); type: cell-based; conditions: Schild analysis vs NPY, read-out: pA2 Y1 (converted)
T1 construct: host or cells: SK-N-MC cells (whole-cell suspension)
T1 sequence (P25929 1-384): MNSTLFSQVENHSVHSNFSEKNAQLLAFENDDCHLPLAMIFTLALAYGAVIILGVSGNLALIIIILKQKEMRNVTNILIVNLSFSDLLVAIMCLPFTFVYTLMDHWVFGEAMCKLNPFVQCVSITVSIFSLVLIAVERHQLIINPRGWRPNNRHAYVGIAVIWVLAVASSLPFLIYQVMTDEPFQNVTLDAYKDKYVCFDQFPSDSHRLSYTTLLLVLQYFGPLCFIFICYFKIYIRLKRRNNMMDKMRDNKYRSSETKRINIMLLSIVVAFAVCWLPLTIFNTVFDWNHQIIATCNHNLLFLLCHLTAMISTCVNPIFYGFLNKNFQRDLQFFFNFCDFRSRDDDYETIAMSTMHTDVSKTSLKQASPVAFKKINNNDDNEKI
Method: The SK-N-MC cells are cultured in 96-well plates. After aspirating the culture medium, the cells are washed with a phosphate buffer pH 7.4 (Invitrogen ref. 14190-094), then lifted with a Versene solution (Invitrogen, ref 15040-033). The cells are centrifuged at 500×g for 10 minutes at 4° C. They are resuspended in a stimulation buffer containing isobutyl-methyl-xanthine in sufficient concentration to inhibit the phosphodiesterases (Flashplate kit, Perkin Elmer). The tested compounds are added 10 minutes before depositing the NPY (Bachem, H3322) in variable concentration, then the 300 nM forskoline (Sigma, F6886). The cells are in cubated 1 hour at ambient temperature to allow cAMP production whose levels are measured using the Flashplate method after 2 hours incubation with the cAMP tracer [^125I]. The results are expressed in pA2 form observing the displacement of NPY dose-effect curves in the absence and presence of increasing concentrations of test compound [Schild, 1949, pAx and competitive drug antagonism, Br. J. Pharmacol., 4, 277-280].

human Y4 receptor = molecular target: T2, human Y4 receptor (Homo sapiens, UniProt P50391); experiment: Binding test to the NPY Y4 receptor ([125I]-human PP, CHO cell membranes); conditions: human Y4, [125I]-human PP
T2 construct: expressed in transfected cells; host or cells: CHO cells (CHO-Y4H), membrane preparation
T2 sequence (P50391 whole entry): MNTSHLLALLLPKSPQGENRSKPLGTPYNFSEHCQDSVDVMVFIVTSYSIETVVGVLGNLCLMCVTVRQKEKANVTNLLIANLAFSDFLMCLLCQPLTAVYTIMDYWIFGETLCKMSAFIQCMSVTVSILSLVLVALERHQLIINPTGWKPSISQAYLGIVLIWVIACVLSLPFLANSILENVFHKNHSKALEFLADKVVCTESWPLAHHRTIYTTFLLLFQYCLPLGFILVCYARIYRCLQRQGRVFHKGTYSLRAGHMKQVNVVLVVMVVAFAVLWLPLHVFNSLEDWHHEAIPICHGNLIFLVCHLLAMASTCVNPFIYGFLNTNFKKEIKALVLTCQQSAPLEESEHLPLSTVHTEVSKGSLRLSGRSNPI
Method: The CHO cells expressing either the Y4 or the Y5 human recombinant receptor are cultured in DMEM medium to which is added 5% dialysed foetal calf serum, 10 mM Hepes buffer and 0.8 g/l sodium bicarbonate. They are lifted from their support using a 36 mM citrate buffer without trypsin and without EDTA, and washed in PBS buffer free of Ca^2+ and of Mg^2+. The cell residues are stored at (−80° C.) until fractioning.
The cell residue is redissolved in 10 mM TRIS buffer, 3 mM MgCl2, pH 7.4 and separated with polytron. After centrifuging at 20 000×g the residue is redissolved in this same buffer, potter separated and aliquoted for storage in liquid nitrogen to around 5 mg/ml proteins.
Approximately 80 μg of membranes of CHO cells having stable expression of the human Y4 receptor are incubated for 60 min at 30° C. in 200 μl Krebs-Ringer buffer (pH 7.4) containing 20 mM Hepes, 1% bovine serum albumin, 0.25 mg/ml bacitracin and 0.1 nM of [^125I]-human PP (Pancreatic Polypeptide, Perkin Elmer, NEX 315). The reaction is halted by filtering through Wathman GF/C filters and washing with 3 times 4 ml of buffer at 4° C. The radioactivity deposited on the filter is counted with a gamma counter (Whizard 1470, Wallac, Perkin Elmer). Non-specific binding is determined in the presence of 0.3 μM of human PP (Neosystem, SC104). […]

NPY Y1 receptor [2] = molecular target: T1, NPY Y1 receptor; experiment: Binding test to the NPY Y1 receptor ([125I]-PYY, SK-N-MC cell suspension); conditions: SK-N-MC cells, 25 pM [125I]-PYY
Method: The SK-N-MC cells (ATCC HBT10) are cultured at 37° C. in MEM medium (minimum essential medium) free of phenol red (Invitrogen ref. 04194565M) containing 10% foetal calf serum (Invitrogen ref. 10270-106), 1% non-essential aminoacids (Invitrogen ref. 11140-035), 1% sodium pyruvate (Invitrogen ref. 11360-039), 1% glutamine (Invitrogen ref. 25030-032), 100 IU/ml of penicillin and 100 μg/ml of streptomycin (Invitrogen ref. 15140-122) in a humid atmosphere containing 5% CO2.
After aspirating the culture medium, the cells are washed with a phosphate buffer pH 7.4 (Invitrogen ref. 14190-094), then lifted with a Versene solution (Invitrogen, ref 15040-033). The cells are centrifuged at 500×g for 10 minutes at 4° C. then resuspended in a freeze buffer pH 7.4 containing 50 mM HEPES (N-2-hydroxyethylpiperazine-N′-2-ethanesulfonic acid), 145 mM sodium chloride, 2.6 mM calcium chloride, 1 mM magnesium chloride, 10 mM glucose, and 1 mg/ml bovine albumin. The cell suspension is aliquoted into twenty million cells per milliliter of buffer and stored at −70° C.
The cell suspension is incubated 2 hours at 37° C. in an incubation buffer pH 7.4 containing 50 mM HEPES, 2.5 mM calcium chloride, 1 mM magnesium chloride, 0.025% sodium azide, 1 mg/ml bovine albumin and 25 pM [^125I]-PYY (Perkin Elmer, NEX341). The reaction is halted by filtering through a GF/B filter pre-treated with 0.3% PEI, and washed three times with 1 ml of 50 mM TRIS buffer [tris(hydroxymethyl)aminomethane]/HCl, pH 7.4. The radioactivity deposited on the filter is measured by liquid scintillation count (TopCount, Packard). Non-specific binding is determined in the presence of 1 μM NPY (Bachem, H3322). Results are expressed as IC50 values in nM calculated by non-linear regression with 4 parameters.

- Kb (NPY Y1 receptor [1]): 6.31 nM
- IC50 (human Y4 receptor): 2620 nM
- IC50 (NPY Y1 receptor [2]): 1.8 nM
Compound: CCCCN1CCC(Oc2ccc(C(=O)Nc3ccc(Oc4ccc(NC(=O)NC(CC)CC)cc4OC)cc3)cc2)CC1 [Example 103, 4-(1-Butyl-piperidin-4-yloxy)-N-(4-{4-[3-(1-ethyl-propyl)-ureido]-2-methoxy-phenoxy}-phenyl)-benzamide]
